Results taken from US9388140B2, “Substituted benzimidazoles” (priority 2011, dated 2016).
Where two headings read alike, the source gives them in different places. Values belong to the molecule of their own block, whether it stands above or below them.

Target: human kinase Mps-1 (Homo sapiens (Human), UniProt P33981)
Assay: Mps-1 kinase assay (TR-FRET)
Type: biochemical
Experimental: The human kinase Mps-1 phosphorylates a biotinylated substrate peptide. Detection of the phosphorylated product is achieved by time-resolved fluorescence resonance energy transfer (TR-FRET) from Europium-labelled anti-phospho-Serine/Threonine antibody as donor to streptavidin labelled with cross-linked allophycocyanin (SA-XLent) as acceptor. Compounds are tested for their inhibition of the kinase activity.
N-terminally GST-tagged human full length recombinant Mps-1 kinase (purchased from Invitrogen, Karslruhe, Germany, cat. no PV4071) was used. As substrate for the kinase reaction a biotinylated peptide of the amino-acid sequence […] (C-terminus in amide form, purchased from Biosynthan GmbH, Berlin) was used.
The concentration of Mps-1 in the assay was adjusted to the activity of the enzyme lot and was chosen appropriate to have the assay in the linear range, typical enzyme concentrations were in the range of about 1 nM (final conc. in the 5 μl assay volume).
The resulting mixture was incubated 1 h at 22° C. to allow the binding of the phosphorylated peptide to the anti-phospho(Ser/Thr)-Europium-antibody. Subsequently the amount of phosphorylated substrate was evaluated by measurement of the resonance energy transfer from the Europium-labelled anti-phospho(Ser/Thr) antibody to the Streptavidin-XLent.

[1] = N-terminally GST-tagged human full length recombinant Mps-1, 10 μM ATP, 1 μM biotinylated peptide substrate, read-out: Mps1 IC50

Chain of human kinase Mps-1 (P33981 whole entry): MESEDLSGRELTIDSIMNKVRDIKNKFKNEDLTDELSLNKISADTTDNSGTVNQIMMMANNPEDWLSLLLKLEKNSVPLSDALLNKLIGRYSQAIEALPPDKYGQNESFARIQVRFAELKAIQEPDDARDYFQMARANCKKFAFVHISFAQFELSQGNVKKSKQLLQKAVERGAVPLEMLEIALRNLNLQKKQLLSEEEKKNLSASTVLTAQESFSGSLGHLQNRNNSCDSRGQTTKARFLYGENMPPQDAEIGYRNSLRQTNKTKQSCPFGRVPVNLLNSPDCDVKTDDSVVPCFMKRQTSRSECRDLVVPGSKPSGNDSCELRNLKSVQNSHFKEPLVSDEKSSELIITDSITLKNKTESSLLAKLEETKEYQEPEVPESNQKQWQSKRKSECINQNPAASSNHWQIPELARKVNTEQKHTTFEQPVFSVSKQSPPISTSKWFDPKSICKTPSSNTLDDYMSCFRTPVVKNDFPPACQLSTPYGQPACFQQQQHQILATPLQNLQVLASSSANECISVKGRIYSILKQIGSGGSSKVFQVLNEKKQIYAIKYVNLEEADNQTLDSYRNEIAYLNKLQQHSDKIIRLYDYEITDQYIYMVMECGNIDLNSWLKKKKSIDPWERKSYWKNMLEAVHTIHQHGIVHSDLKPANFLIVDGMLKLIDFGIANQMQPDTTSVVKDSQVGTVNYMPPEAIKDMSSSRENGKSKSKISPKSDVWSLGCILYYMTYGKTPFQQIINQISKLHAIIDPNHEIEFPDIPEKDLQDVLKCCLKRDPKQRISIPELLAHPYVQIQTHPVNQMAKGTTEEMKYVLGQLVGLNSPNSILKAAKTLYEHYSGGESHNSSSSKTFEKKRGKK

SMILES: CCNC(=O)c1ccc(-n2cnc3c(NCCC(F)(F)F)cc(-c4ccnn4C)cc32)cc1C [Example 31, N-ethyl-2-methyl-4-{6-(1-methyl-1H-pyrazol-5-yl)-4-[(3,3,3-trifluoropropyl)amino]-1H-benzimidazol-1-yl}benzamide]
IC50 [1]: 33 nM

SMILES: CNC(=O)c1ccc(-n2cnc3c(NCCC(F)(F)F)cc(-c4ccnn4C)cc32)cc1C [Example 32, N, 2-dimethyl-4-{6-(1-methyl-1H-pyrazol-5-yl)-4-[(3,3,3-trifluoropropyl)amino]-1H-benzimidazol-1-yl}benzamide]
IC50 [1]: 20.2 nM

SMILES: COc1ccc(Oc2cc(NCCC(F)(F)F)c3ncn(-c4ccc(C(=O)NC5CC5)c(C)c4)c3c2)cc1F [Example 33, N-cyclopropyl-4-{6-(3-fluoro-4-methoxyphenoxy)-4-[(3,3,3-trifluoropropyl)amino]-1H-benzimidazol-1-yl}-2-methylbenzamide]
IC50 [1]: 0.7 nM

SMILES: CCNC(=O)c1ccc(-n2cnc3c(NCCC(F)(F)F)cc(Oc4ccc(OC)c(F)c4)cc32)cc1C [Example 34, N-ethyl-4-{6-(3-fluoro-4-methoxyphenoxy)-4-[(3,3,3-trifluoropropyl)amino]-1H-benzimidazol-1-yl}-2-methylbenzamide]
IC50 [1]: 5.8 nM

SMILES: CNC(=O)c1ccc(-n2cnc3c(NCCC(F)(F)F)cc(Oc4ccc(OC)c(F)c4)cc32)cc1C [Example 35, 4-{6-(3-Fluoro-4-methoxyphenoxy)-4-[(3,3,3-trifluoropropyl)amino]-1H-benzimidazol-1-yl}-N,2-dimethylbenzamide]
IC50 [1]: 3.9 nM

IC50: 0.4 nM
SMILES: O=C(NC1CC1)c1ccc(-n2cnc3c(NCCC(F)(F)F)cc(Oc4cccc(F)c4F)cc32)cc1 [Example 36, N-cyclopropyl-4-{6-(2,3-difluorophenoxy)-4-[(3,3,3-trifluoropropyl)amino]-1H-benzimidazol-1-yl}benzamide]

SMILES: O=C(NC1CC1)c1ccc(-n2cnc3c(NCCC(F)(F)F)cc(Oc4ccccc4)cc32)cc1 [Example 37, N-cyclopropyl-4-{6-phenoxy-4-[(3,3,3-trifluoropropyl)amino]-1H-benzimidazol-1-yl}benzamide]
IC50: 0.5 nM

SMILES: COc1ccc(Oc2cc(NCCC(F)(F)F)c3ncn(-c4ccc(C(=O)NC5CC5)cc4)c3c2)cc1F [Example 38, N-cyclopropyl-4-{6-(3-fluoro-4-methoxyphenoxy)-4-[(3,3,3-trifluoropropyl)amino]-1H-benzimidazol-1-yl}benzamide]
IC50 [1]: 0.4 nM

SMILES: CNC(=O)c1ccc(-n2cnc3c(NCCC(F)(F)F)cc(Oc4ccccc4OC)cc32)cc1C [Example 39, 4-{6-(2-Methoxyphenoxy)-4-[(3,3,3-trifluoropropyl)amino]-1H-benzimidazol-1-yl}-N, 2-dimethylbenzamide]
IC50 [1]: 43.3 nM

SMILES: CCNC(=O)c1ccc(-n2cnc3c(NCCC(F)(F)F)cc(Oc4ccccc4OC)cc32)cc1C [Example 40, N-ethyl-4-{6-(2-methoxyphenoxy)-4-[(3,3,3-trifluoropropyl)amino]-1H-benzimidazol-1-yl}-2-methylbenzamide]
IC50 [1]: 58.2 nM

SMILES: COc1ccccc1Oc1cc(NCCC(F)(F)F)c2ncn(-c3ccc(C(=O)NC4CC4)c(C)c3)c2c1 [Example 41, N-cyclopropyl-4-{6-(2-methoxyphenoxy)-4-[(3,3,3-trifluoropropyl)amino]-1H-benzimidazol-1-yl}-2-methylbenzamide]
IC50 [1]: 10.1 nM

SMILES: CNC(=O)c1ccc(-n2cnc3c(NCC4CCOCC4)cc(Oc4ccc(OC)c(F)c4)cc32)cc1C [Example 42, 4-{6-(3-Fluoro-4-methoxyphenoxy)-4-[(tetrahydro-2H-pyran-4-ylmethyl)amino]-1H-benzimidazol-1-yl}-N,2-dimethylbenzamide]
IC50 [1]: 4.9 nM

IC50 [1]: 4 nM
SMILES: CCNC(=O)c1ccc(-n2cnc3c(NCC4CCOCC4)cc(Oc4ccc(OC)c(F)c4)cc32)cc1C [Example 43, N-ethyl-4-{6-(3-fluoro-4-methoxyphenoxy)-4-[(tetrahydro-2H-pyran-4-ylmethyl)amino]-1H-benzimidazol-1-yl}-2-methylbenzamide]

IC50 [1]: 0.7 nM
SMILES: COc1ccc(Oc2cc(NCC3CCOCC3)c3ncn(-c4ccc(C(=O)NC5CC5)c(C)c4)c3c2)cc1F [Example 44, N-cyclopropyl-4-{6-(3-fluoro-4-methoxyphenoxy)-4-[(tetrahydro-2H-pyran-4-ylmethyl)amino]-1H-benzimidazol-1-yl}-2-methylbenzamide]

SMILES: Cc1cc(-n2cnc3c(NCCC(F)(F)F)cc(Oc4ccc(OCc5ccccc5)cc4)cc32)ccc1C(=O)NC1CC1 [Example 45, 4-{6-[4-(Benzyloxy)phenoxy]-4-[(3,3,3-trifluoropropyl)amino]-1H-benzimidazol-1-yl}-N-cyclopropyl-2-methylbenzamide]
IC50 [1]: 6.7 nM

SMILES: CCNC(=O)c1ccc(-n2cnc3c(NCCC(F)(F)F)cc(Oc4ccc(OCc5ccccc5)cc4)cc32)cc1C [Example 46, 4-{6-[4-(Benzyloxy)phenoxy]-4-[(3,3,3-trifluoropropyl)amino]-1H-benzimidazol-1-yl}-N-ethyl-2-methylbenzamide]
IC50 [1]: 100 nM

SMILES: CNC(=O)c1ccc(-n2cnc3c(NCCC(F)(F)F)cc(Oc4ccc(OCc5ccccc5)cc4)cc32)cc1C [Example 47, 4-{6-[4-(Benzyloxy)phenoxy]-4-[(3,3,3-trifluoropropyl)amino]-1H-benzimidazol-1-yl}-N,2-dimethylbenzamide]
IC50 [1]: 100 nM

SMILES: CNC(=O)c1ccc(-n2cnc3c(NCCC(F)(F)F)cc(Oc4ccc(O)cc4)cc32)cc1C [Example 48, 4-{6-(4-Hydroxyphenoxy)-4-[(3,3,3-trifluoropropyl)amino]-1H-benzimidazol-1-yl}-N,2-dimethylbenzamide]
IC50 [1]: 5.6 nM

SMILES: CCNC(=O)c1ccc(-n2cnc3c(NCCC(F)(F)F)cc(Oc4ccc(O)cc4)cc32)cc1C [Example 49, N-ethyl-4-{6-(4-hydroxyphenoxy)-4-[(3,3,3-trifluoropropyl)amino]-1H-benzimidazol-1-yl}-2-methylbenzamide]
IC50 [1]: 5.5 nM

SMILES: Cc1cc(-n2cnc3c(NCCC(F)(F)F)cc(Oc4ccc(O)cc4)cc32)ccc1C(=O)NC1CC1 [Example 50, N-cyclopropyl-4-{6-(4-hydroxyphenoxy)-4-[(3,3,3-trifluoropropyl)amino]-1H-benzimidazol-1-yl}-2-methylbenzamide]
IC50 [1]: 1.1 nM

SMILES: Cc1cc(-c2cc(NCCC(F)(F)F)c3ncn(-c4ccc(C(=O)NC5CC5)c(C)c4)c3c2)ccc1C(=O)NC1CC1 [Example 51, 4,4′-{4-[(3,3,3-Trifluoropropyl)amino]-1H-benzimidazole-1,6-diyl}bis(N-cyclopropyl-2-methylbenzamide)]
IC50 [1]: 0.9 nM

SMILES: CNC(=O)c1ccc(-c2cc(NCCC(F)(F)F)c3ncn(-c4ccc(C(=O)NC5CC5)c(C)c4)c3c2)cc1C [Example 52, 4-{1-[4-(Cyclopropylcarbamoyl)-3-methylphenyl]-4-[(3,3,3-trifluoropropyl)amino]-1H-benzimidazol-6-yl}-N,2-dimethylbenzamide]
IC50 [1]: 0.9 nM

SMILES: CCNC(=O)c1ccc(-c2cc(NCCC(F)(F)F)c3ncn(-c4ccc(C(=O)NC5CC5)c(C)c4)c3c2)cc1C [Example 53, 4-{1-[4-(Cyclopropylcarbamoyl)-3-methylphenyl]-4-[(3,3,3-trifluoropropyl)amino]-1H-benzimidazol-6-yl}-N-ethyl-2-methylbenzamide]
IC50 [1]: 1.9 nM

SMILES: Cc1cc(-n2cnc3c(NCCC(F)(F)F)cc(Oc4ccccc4O)cc32)ccc1C(=O)NC1CC1 [Example 54, N-cyclopropyl-4-{6-(2-hydroxyphenoxy)-4-[(3,3,3-trifluoropropyl)amino]-1H-benzimidazol-1-yl}-2-methylbenzamide]
IC50 [1]: 0.2 nM
